Reference: ChEMBL document CHEMBL1201862, “PubChem BioAssay data set” (2004)
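Exposure lasted 48 hours, with cells grown in 96-well plates and compounds tested at five concentrations. Abbreviation: GI50, concentration required for 50% inhibition of growth.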 Activity calls are given as the source filed them. Cut-off read from the data, not from the text of the source: active = GI50 up to about 1.1 µM and inactive = higher.

What was measured:
Test in all cases: NCI anticancer screen, dose series, 48 h
EKVX = system: EKVX
HL-60 = system: HL-60
HOP-62 = system: HOP-62
HT-29 = system: HT-29
KM12 = system: KM12
Malme-3M = system: Malme-3M
NCI-H460 = system: NCI-H460
OVCAR-8 = system: OVCAR-8
RPMI-8226 = system: RPMI-8226
RXF 393 = system: RXF 393
SF-268 = system: SF-268
SF-539 = system: SF-539
SK-MEL-28 = system: SK-MEL-28
SK-MEL-2 = system: SK-MEL-2
SNB-19 = system: SNB-19
SNB-75 = system: SNB-75
SW-620 = system: SW-620

Measured: GI50

COc1ccccc1NC(=O)C1=C(C)NC(C)=C(C(=O)Nc2ccccc2OC)C1c1ccc(N(C)C)cc1
inactive: EKVX 27.4 µM | HL-60 15.8 µM | HOP-62 22.3 µM | HT-29 45.4 µM | KM12 21.6 µM | Malme-3M 36.1 µM | NCI-H460 27.5 µM | OVCAR-8 24 µM | RPMI-8226 16.6 µM | RXF 393 21.7 µM | SF-268 24.5 µM | SF-539 37.5 µM | SK-MEL-28 22.6 µM | SK-MEL-2 19.7 µM | SNB-19 55.8 µM | SNB-75 30.8 µM | SW-620 36.3 µM

O=C1[C@H]2ON(c3ccccc3)C(c3ccc([N+](=O)[O-])cc3)[C@H]2C(=O)N1c1ccc(Cc2ccc(N3C(=O)[C@@H]4ON(c5ccccc5)C(c5ccc([N+](=O)[O-])cc5)[C@@H]4C3=O)cc2)cc1 (some centres undefined)
inactive: EKVX > 100 µM | HL-60 > 100 µM | HOP-62 > 100 µM | HT-29 > 100 µM | KM12 > 100 µM | Malme-3M 58.6 µM | NCI-H460 > 100 µM | OVCAR-8 > 100 µM | RPMI-8226 > 100 µM | RXF 393 > 100 µM | SF-268 > 100 µM | SF-539 > 100 µM | SK-MEL-28 > 100 µM | SK-MEL-2 > 100 µM | SNB-19 > 100 µM | SNB-75 > 100 µM | SW-620 > 100 µM

O=C(C(O)c1cn(Cc2ccccc2)c2ccccc12)N1CCCCC1 (centres undefined)
inactive: EKVX 54.6 µM | HL-60 > 100 µM | HOP-62 > 100 µM | HT-29 > 100 µM | KM12 > 100 µM | Malme-3M > 100 µM | OVCAR-8 > 100 µM | RPMI-8226 > 100 µM | RXF 393 > 10 µM | SF-268 83.2 µM | SF-539 > 100 µM | SK-MEL-28 > 10 µM | SK-MEL-2 > 100 µM | SNB-19 > 100 µM | SNB-75 > 100 µM | SW-620 > 100 µM

NC(=O)N/N=C/C(/C=N/NC(N)=O)[N+](=O)[O-]
inactive: EKVX > 100 µM | HL-60 > 100 µM | HOP-62 > 100 µM | HT-29 > 100 µM | KM12 > 100 µM | Malme-3M > 100 µM | RPMI-8226 > 100 µM | RXF 393 > 100 µM | SF-268 > 100 µM | SF-539 > 100 µM | SK-MEL-28 > 100 µM | SK-MEL-2 > 100 µM | SNB-19 > 100 µM | SNB-75 > 100 µM | SW-620 > 100 µM

CC1(c2ccc[n+](Cc3ccccc3)c2)OCCO1
inactive: EKVX > 100 µM | HL-60 > 100 µM | HOP-62 > 100 µM | HT-29 > 100 µM | KM12 > 100 µM | Malme-3M > 100 µM | NCI-H460 > 100 µM | OVCAR-8 > 100 µM | RPMI-8226 > 100 µM | RXF 393 > 100 µM | SF-539 > 100 µM | SK-MEL-2 > 100 µM | SNB-19 > 100 µM | SNB-75 > 100 µM | SW-620 > 100 µM

Cc1ccccc1NC(=O)c1c(C)oc2c1C(=O)c1ccccc1C2=O
inactive: EKVX > 72.6 µM | HL-60 19.8 µM | HOP-62 > 56.1 µM | HT-29 35.9 µM | KM12 30.9 µM | Malme-3M 10.2 µM | NCI-H460 32.4 µM | OVCAR-8 41.5 µM | RPMI-8226 22.6 µM | RXF 393 > 100 µM | SF-268 31.8 µM | SF-539 25.9 µM | SK-MEL-28 27.5 µM | SK-MEL-2 30.5 µM | SNB-19 35.6 µM | SNB-75 39.7 µM | SW-620 19.7 µM

O=C1/C(=C/c2cccc([N+](=O)[O-])c2)COc2ccc(Br)cc21
inactive: EKVX > 100 µM | HL-60 17.7 µM | HOP-62 > 100 µM | HT-29 58.6 µM | KM12 > 100 µM | Malme-3M > 100 µM | NCI-H460 > 100 µM | OVCAR-8 > 100 µM | RPMI-8226 2.24 µM | RXF 393 > 100 µM | SF-268 > 100 µM | SF-539 > 100 µM | SK-MEL-28 > 100 µM | SK-MEL-2 > 100 µM | SNB-75 55.7 µM | SW-620 42.4 µM

O=C(Cc1cc[n+]([O-])cc1)C(=O)Nc1cc(Cl)c(Cl)cc1Cl
inactive: EKVX > 100 µM | HL-60 > 100 µM | HOP-62 > 100 µM | KM12 > 100 µM | Malme-3M > 100 µM | NCI-H460 > 100 µM | OVCAR-8 > 100 µM | RPMI-8226 > 100 µM | RXF 393 > 100 µM | SF-268 > 100 µM | SF-539 > 100 µM | SK-MEL-28 > 100 µM | SK-MEL-2 > 100 µM | SNB-19 > 100 µM | SNB-75 77.1 µM | SW-620 > 100 µM

CCCNC1=C(C(=O)OCC)C(=O)CO1
inactive: EKVX > 100 µM | HL-60 > 100 µM | HT-29 > 100 µM | Malme-3M > 100 µM | NCI-H460 > 100 µM | OVCAR-8 > 100 µM | RPMI-8226 > 100 µM | RXF 393 > 100 µM | SF-268 > 100 µM | SF-539 > 100 µM | SK-MEL-28 > 100 µM | SK-MEL-2 > 100 µM | SNB-19 > 100 µM | SNB-75 > 100 µM | SW-620 > 100 µM

O=C1NC(=S)NC(=O)C1=CC1CC1
inactive: EKVX > 100 µM | HL-60 > 100 µM | HOP-62 > 100 µM | HT-29 > 100 µM | KM12 > 100 µM | Malme-3M > 100 µM | NCI-H460 > 100 µM | OVCAR-8 > 100 µM | RPMI-8226 > 100 µM | RXF 393 > 100 µM | SF-268 > 100 µM | SF-539 > 100 µM | SK-MEL-28 > 100 µM | SK-MEL-2 > 100 µM | SNB-19 > 100 µM | SNB-75 46.3 µM | SW-620 > 100 µM

CCOC(=O)C1=C(OC(OCC)C(C)[Se]c2ccccc2)CCC1 (centres undefined)
inactive: EKVX 21.6 µM | HL-60 4.16 µM | HOP-62 64.6 µM | HT-29 28.1 µM | KM12 59 µM | Malme-3M 28.1 µM | NCI-H460 25.4 µM | OVCAR-8 16 µM | RPMI-8226 13 µM | RXF 393 15.7 µM | SF-268 13.3 µM | SF-539 17.5 µM | SK-MEL-28 22.6 µM | SK-MEL-2 > 100 µM | SNB-19 36.1 µM | SNB-75 30.1 µM

CC(=O)OC1CC2C(C)(C)C(=O)C=C[C@]2(C)C2CCC3(C)C(=CC(=O)C3c3ccoc3)[C@]12C (some centres undefined)
inactive: EKVX 15.7 µM | HL-60 14.3 µM | HOP-62 16.3 µM | HT-29 13.5 µM | KM12 11.9 µM | Malme-3M 17.5 µM | NCI-H460 11.4 µM | OVCAR-8 16.7 µM | RPMI-8226 14.9 µM | RXF 393 2.3 µM | SF-268 15.6 µM | SF-539 16.9 µM | SK-MEL-28 15.9 µM | SK-MEL-2 17.9 µM | SNB-19 15.6 µM | SNB-75 12.5 µM | SW-620 10.5 µM
